# According to ChEMBL document CHEMBL1132455, “Retention of immunosuppressant activity in an ascomycin analogue lacking a hydrogen-bonding interaction with FKBP12” (J Med Chem, 1999):
# Tests used:
# [1] = biological target: Peptidyl-prolyl cis-trans isomerase FKBP1A (Homo sapiens, UniProt P62942); assay: The compound was tested for binding affinity against human FK506 binding protein 12
# [2] = species on record: Homo sapiens; assay: Immunosuppressive activity examined in an in vitro model of allogenic T-lymphocyte activation(by MLR assay); type: functional
# [3] = test system: Rattus norvegicus; assay: The compound was tested in vivo for lympho-proliferation,against popliteal lymph node(inbred male rats) after i.p. administration; type: functional; settings: ip
# [4] = species on record: Homo sapiens; assay: Immunosuppressive activity examined in an in vitro model of allogenic T-lymphocyte activation (by MLR assay); type: functional
# Peptidyl-prolyl cis-trans isomerase FKBP1A, sequence (P62942 whole entry): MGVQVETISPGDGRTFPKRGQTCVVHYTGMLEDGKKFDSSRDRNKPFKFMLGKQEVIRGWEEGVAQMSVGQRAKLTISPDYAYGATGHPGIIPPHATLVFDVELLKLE
IC50 [1],IC50 [2],IC50 [4],SMILES,ED50 [3]
529 nM,22 nM,–,CC[C@@H]1/C=C(\C)C[C@H](C)C[C@H](OC)[C@H]2O[C@@](O)(C(=O)C(=O)N3CCCC[C@H]3C(=O)O[C@H](/C(C)=C/[C@@H]3CC[C@@H](O)[C@H](OC)C3)[C@H](C)/C=C/C1=O)[C@H](C)C[C@@H]2OC,–
0.77 nM,–,0.15 nM,CC[C@@H]1/C=C(\C)C[C@H](C)C[C@H](OC)[C@H]2O[C@@](O)(C(=O)C(=O)N3CCCC[C@H]3C(=O)O[C@H](/C(C)=C/[C@@H]3CC[C@@H](O)[C@H](OC)C3)[C@H](C)CCC1=O)[C@H](C)C[C@@H]2OC,0.65 mg/kg/day
–,–,0.26 nM,CC[C@@H]1/C=C(\C)C[C@H](C)C[C@H](OC)[C@H]2O[C@@](O)(C(=O)C(=O)N3CCCC[C@H]3C(=O)O[C@H](/C(C)=C/[C@@H]3CC[C@@H](O)[C@H](OC)C3)[C@H](C)[C@@H](O)CC1=O)[C@H](C)C[C@@H]2OC [ASCOMYCIN],0.32 mg/kg/day
–,–,0.23 nM,C=CC[C@@H]1/C=C(\C)C[C@H](C)C[C@H](OC)[C@H]2O[C@@](O)(C(=O)C(=O)N3CCCC[C@H]3C(=O)O[C@H](/C(C)=C/[C@@H]3CC[C@@H](O)[C@H](OC)C3)[C@H](C)[C@@H](O)CC1=O)[C@H](C)C[C@@H]2OC [TACROLIMUS ANHYDROUS],0.15 mg/kg/day
